US20090068143A1, “ORALLY EFFECTIVE C[…]” (priority 2005, published 2009)

Experiments:
MBP induced acute EAE = assay: MBP induced acute EAE; assay type: in vivo, Lewis rats
Protocol: In the present study, EAE was induced by injection of Myelin Basic Protein (MBP), a method known to model the acute phase of MS. In this model the onset of the disease is observed by the appearance of clinical symptoms about 10 days after induction. The disease progresses and the clinical score increases and peaks around day 15 and spontaneous recovery is observed around day 23 after induction of the disease.
Female Lewis rats (average body weight 130-180 g, Harlan, Israel) were injected s.c. into the hind paws with 25 μg of purified guinea pig myelin basic protein (MBP, Sigma) emulsified in 0.1 ml of Complete Freund's Adjuvant (Difco). Animals were maintained on a 12 hours light/12 hours dark regimen, at a constant temperature of 22° C., with food and water ad libitum. Starting from day 8 following induction, animals were followed up on a daily basis. The results are recorded as clinical score; score of 0 indicates a normal animal with no clinical signs, 0.5 indicates a loss of tonicity in the tail's distal part, 1 indicates whole tail paralysis, 1.5 indicates hind legs weakness in one leg, 2 indicates hind legs weakness in two legs, 2.5 indicates fore legs paralysis in one leg, 3 indicates paralysis of all four legs, 4 indicates complete body paralysis and moribund state and 5 indicates death. The clinical score of the animals is recorded for 15 days following onset of disease until the end of the study 25 days following induction and the area under the curve (AUC) is calculated over this period of time.
Few routes of administration were assessed and the treatments were either administered intravenously (in CE vehicle) or orally by gavage (in PB vehicle) at volume dose of 5 ml/kg.
Results are expressed as mean±SEM and the differences between the treatment groups were analyzed by analysis of variance (ANOVA) followed by Tukey's post hoc test. A value of p<0.05 was considered to be statistically significant and is indicated on the figure by an asterisk over the relevant treatment group.
Compound 18A was dissolved in CREMOPHOR EL®:ethanol and further diluted in physiological buffer prior to i.v. administration. It is now disclosed that compound 18F could be dissolved directly in 80 mM phosphate buffer (pH 6.4) and administered p.o. Compound 18F was administered by oral gavage at doses of 20, 30, 40, 50 and 60 mg/kg to animals showing clinical signs of the disease. Each treatment group comprised at least 10 animals at onset of disease. At some doses, experiments were repeated up to four times.

visceral pain = assay: Visceral pain, acetic acid induced writhing responses; assay type: in vivo, ICR mice; conditions: for number of writhing responses: alone or combined with 0.5 mg/kg CPZ; for reduction of writhing responses as compared to vehicle treated animals: second study
Protocol: For the i.v. part of the study, compounds were dissolved in CREMOPHOR®:Ethanol and diluted 1:20 in saline prior to injection, fifteen minutes before pain induction. When compounds were delivered per os, they were dissolved in phosphate buffer or in CREMOPHOR®:Ethanol as previously described and administered 1 hour before pain induction. Each treatment group, except for controls comprising at least 30 animals, was composed of at least 6 animals. Fifteen or sixty minutes later, depending on the route selected for drug administration, the mice were injected i.p. with 10 ml/kg of 0.6% acetic acid and the number of visceral pain related behaviors (writhing, stretching, contractions of the abdomen accompanied by an elongation of the body and extension of the hind limbs) is counted over a period of 5 minutes, starting 5 minutes after the acetic acid administration. These visceral pain related behaviors are globally defined as writhing responses (WR). The results are expressed as mean number of writhing responses±SEM. Data were analyzed using analysis of variance (ANOVA) followed by post-hoc Fisher test. A value of p<0.05 was considered to be statistically significant and is indicated on the figure by an asterisk over the relevant treatment group.
The following results were obtained at 2 mg/kg i.v. of test compounds or, in the case of the study performed with cannabinoid receptor antagonists, 1 mg/kg test compound or antagonist alone and 1 mg/kg test compound+1 mg/kg antagonist. In a separate study, it was shown that analgesic activity of compounds of the invention was dose related.

SMILES: CCCCCCC(C)(C)c1cc(O)c([C@H]2CC(=O)C3CC2C3(C)C)c(OC(=O)/C=C/C(=O)O)c1 (single isomer, unassigned; (-)) [Compound 18F, (−)-4-{4-[1,1-Dimethylheptyl]-2-fumarate-6-hydroxy-phenyl}-6,6-dimethyl-bicyclo[3.1.1]heptan-2-one]
- effect on clinical outcome (mean group score) (MBP induced acute EAE; 20 mg/kg p.o.): does not significantly affect the clinical outcome
- effect on mean of maximal scores (MMS) (MBP induced acute EAE; 20 mg/kg p.o.): only a trend of improvement
- effect on clinical outcome (mean group score) (MBP induced acute EAE; 30 mg/kg p.o.): positive trend of score reduction
- reduction of AUC (MBP induced acute EAE; 30 mg/kg p.o., ns): more than 20%
- reduction of AUC (MBP induced acute EAE; 40 mg/kg p.o., p<0.05): 33%
- reduction of AUC (MBP induced acute EAE; 50 mg/kg p.o., p<0.05): 42%
- animals died before study completion (MBP induced acute EAE; 60 mg/kg p.o.): 7%
- reduction of AUC (MBP induced acute EAE; 60 mg/kg p.o., p<0.05): 43%
- increase of pain threshold over vehicle treated animals (mechanical hyperalgesia) (MBP induced acute EAE; 60 mg/kg p.o., preliminary): 25%
- reduction in MMS (MBP induced acute EAE; 30-60 mg/kg p.o.): at least 30%
- CB1 mediated side effects (MBP induced acute EAE; repeated p.o. administration): no CB1 mediated side effects were observed
- number of writhing responses (visceral pain; 0.5 mg/kg compound 18F i.v.): 10
- reduction of writhing responses as compared to vehicle treated animals (visceral pain; 0.5 mg/kg i.v.): 64%
- number of writhing responses (visceral pain; 1 mg/kg compound 18F i.v.): 9
- inhibition of the number of writhing responses (visceral pain; 1 mg/kg i.v.): 71%
- effect of addition of CB1 antagonist on analgesic activity (visceral pain; 1 mg/kg i.v. + 1 mg/kg SR141716A): only partially reversed
- effect of addition of CB2 antagonist on analgesic activity (visceral pain; 1 mg/kg i.v. + 1 mg/kg SR144528): significantly reversed
- inhibition of writhing responses as compared to vehicle treated group (visceral pain; 2 mg/kg i.v.): 94%
- reduction of writhing responses as compared to vehicle treated animals (visceral pain; 2 mg/kg i.v.): 98%
- inhibition of writhing responses (visceral pain; 10 mg/kg p.o. in CREMOPHOR®:Ethanol): 71%
- inhibition of pain response as compared to untreated animals (visceral pain; 10 mg/kg p.o. in phosphate buffer): 61%
- dose from which reduction of writhing responses was significant (visceral pain; p.o. in phosphate buffer): 10 mg/kg
- inhibition of writhing responses (visceral pain; p.o. in phosphate buffer, highest dose tested (5 to 60 mg/kg)): 93%
